Values after ≈ are worked out from the molar mass of the structure shown.
details: buffer; pH 7.4; 200.0 µM

| SMILES | solubility kinetic |
| --- | --- |
| COc1cccc(NC(=O)Nc2cccc(C)n2)c1 | 0.3 µg/mL (≈ 1.17 µM) |
| O=C(Nc1ccc(Cl)c(C(F)(F)F)c1)c1ccncc1 | 38.7 µg/mL (≈ 129 µM) |
| NS(=O)(=O)c1ccc(CCNC(=O)c2ccc(Cl)c(S(=O)(=O)N3CCCCC3)c2)cc1 | 12.1 µg/mL (≈ 24.9 µM) |
| N#CCc1ccc(Oc2ncccn2)cc1 | > 31.7 µg/mL |
| C/C(O)=c1/c(=O)nc2cccc3c2=c1c1ccccc1c3=O | < 0.6 µg/mL |
| COc1ccc2cc(S(=O)(=O)N3CCCC(C)C3)ccc2c1 (stereo unspecified) | < 0.7 µg/mL |
| CCOC(=O)Nc1ccc2c(c1)N(C(=O)CN(C)C)c1ccccc1CC2.Cl | 57.7 µg/mL |
| CCCc1nc2oc3ccccc3c(=O)c2c(=O)n1-c1ccccc1 | 37.2 µg/mL (≈ 112 µM) |
| Cc1nnc(SCC(=O)NC23CC4CC(CC(C4)C2)C3)s1 | > 48.5 µg/mL |
| CSc1cccc(CN2CCC(CCC(=O)NC3CC3)CC2)c1 | > 49.9 µg/mL |
| Cc1cc(OCC(O)CN2CCCC2)ccc1C(C)C.Cl (stereo unspecified) | 39.1 µg/mL |
| O=C(CN1CCOCC1)Nc1ccc(NC(=O)c2ccccc2F)cc1 | > 53.6 µg/mL |
| Cc1cc(C)cc(NC(=O)CN2C(=O)NC(Cc3c[nH]c4ccccc34)C2=O)c1 (stereo unspecified) | 2 µg/mL (≈ 5.12 µM) |
| COc1ccc(NC(=O)c2cccnc2)cc1 | > 34.2 µg/mL |
| Oc1ccccc1C=NCCN=Cc1ccccc1O | 27.6 µg/mL (≈ 103 µM) |
| Cc1ncc([N+](=O)[O-])n1CC(=O)Nc1ccc(F)c(Cl)c1 | 0.5 µg/mL (≈ 1.6 µM) |
| CCOC(=O)Cn1c(=O)n(Cc2ccc(C)cc2)c(=O)c2cccnc21 | 1.4 µg/mL (≈ 3.96 µM) |
| Cn1cc(-c2cccc(C(F)(F)F)c2)cc(C#N)c1=O | 7.6 µg/mL (≈ 27.3 µM) |
| Cc1cc(C)n(-c2ccc(C(=O)N3CC(C)OC(C)C3)cc2)n1 (stereo unspecified) | > 47 µg/mL |
| CC1CCCCN1C(=O)CCn1c(=O)oc2ccccc21 (stereo unspecified) | > 43.3 µg/mL |
| COc1cc2[nH]c(Cl)c([N+](=O)[O-])c2cc1OC | > 38.5 µg/mL |
| Cc1ccc(/C=C/C(=O)O)cc1S(=O)(=O)Nc1ccc(C(=O)O)cc1 | 42.4 µg/mL (≈ 117 µM) |
| CC(NS(=O)(=O)c1ccc(N)cc1)C1CC2CCC1C2 (stereo unspecified) | 6.8 µg/mL (≈ 23.1 µM) |
| CCn1c(CCNC(=O)c2ccco2)nc2ccccc21 | 40.5 µg/mL (≈ 143 µM) |
| O=c1oc2c(O)cccc2cc1-c1nc2ccccc2[nH]1 | 1.1 µg/mL (≈ 3.95 µM) |

| SMILES | solubility kinetic |
| --- | --- |
| O=S1(=O)CCC(NS(=O)(=O)c2ccc3ccccc3c2)C1 (stereo unspecified) | > 48.8 µg/mL |
| O=C(CCNS(=O)(=O)c1ccccc1)N1CCCC1 | > 42.4 µg/mL |
| Cc1nc(C(=O)NNC(=O)c2cccc(Cl)c2)c(C(F)(F)F)o1 | > 52.2 µg/mL |
| COc1cccc(NC(=O)C(C)SCc2ccccc2)c1 (stereo unspecified) | > 45.2 µg/mL |
| CC(C)c1cc(NCCOCCO)n2c(nc3ccccc32)c1C#N | 7.8 µg/mL (≈ 23 µM) |
| O=C1CCc2ccc(NC(=O)C3CC3)cc2N1 | > 34.5 µg/mL |
| O=C(O)Cn1c(=O)c2c(c3ccccc31)CCC2 | > 36.5 µg/mL |
| CC(C)=CC(=O)Nc1ccc(S(=O)(=O)Nc2ccccn2)cc1 | 46.2 µg/mL (≈ 139 µM) |
| Fc1ccc(OCCn2cnc(Cl)c2Cl)cc1 | 29.7 µg/mL (≈ 108 µM) |
| O=C(COC(=O)c1ccc(Cl)nc1)NCCc1ccccc1 | 45.5 µg/mL (≈ 143 µM) |
| CC(C)Oc1ccc(OCCn2c(=S)[nH]c3c(N)ncnc32)cc1 | 45.2 µg/mL (≈ 131 µM) |
| Cc1cccc(C(=O)O/N=C/c2ccc(Br)cc2)c1 | < 0.7 µg/mL |
| COc1ccc(OC)c(NC(=O)NCc2cccnc2)c1 | > 43.1 µg/mL |
| COc1ccc(CNc2cc(C)ccn2)c(O)c1 | 29.9 µg/mL (≈ 122 µM) |
| CCN1CCN(c2cc(C)nc(-c3ccccc3O)n2)CC1 | > 44.8 µg/mL |
| CN(C)c1ncnc2sc(-c3ccccc3)cc12 | 3 µg/mL (≈ 11.7 µM) |
| NC(=O)C1CCN(c2oc(-c3cccs3)nc2S(=O)(=O)c2ccc(Br)cc2)CC1 | 17.6 µg/mL (≈ 35.5 µM) |
| CN1CCN(c2c([N+](=O)[O-])cnc3ccccc23)CC1.Cl | > 46.3 µg/mL |
| COc1ccc(CNC(=O)CCC(=O)c2ccc(F)cc2)cc1OC | > 51.8 µg/mL |
| O=C(CCCN1C(=O)/C(=C\c2ccccc2)SC1=S)N1CCOCC1 | 9.8 µg/mL (≈ 26 µM) |
| COC(=O)CNC(=O)c1cc(-c2ccncc2)nc2ccc(C)cc12 | > 50.3 µg/mL |
| COc1cc(OC)c(OC)cc1CN1CCC(O)CC1.Cl | > 47.7 µg/mL |
| O=C(NCCCO)c1cc2ccccc2[nH]1 | > 32.7 µg/mL |
| Cc1cnc(C(=O)OCC(=O)N(CC(C)C)C2CCS(=O)(=O)C2)cn1 (stereo unspecified) | > 55.4 µg/mL |
| CC(=O)C1=C(C)NC(C)=C(C(C)=O)C1c1ccccc1 | 35.3 µg/mL (≈ 131 µM) |

| SMILES | solubility kinetic |
| --- | --- |
| O=C(O)/C(=C/c1ccco1)NC(=O)c1ccc(Br)o1 | > 48.9 µg/mL |
| CCN1CCN(c2oc(-c3ccc([N+](=O)[O-])cc3)nc2C#N)CC1 | 4 µg/mL (≈ 12.2 µM) |
| O=C(OCc1c(F)cccc1Cl)c1cnc(Cl)c(Cl)c1 | < 0.7 µg/mL |
| O=C(NCC1CCCO1)c1ccc(F)c2ccccc12 (stereo unspecified) | > 41 µg/mL |
| CC(C)CC(=O)N1CCN(Cc2ccc(Br)cc2)CC1 | 28.1 µg/mL (≈ 82.8 µM) |
| CCc1nc2ccc(C(=O)NCc3ccccc3)cc2nc1CC | 3.6 µg/mL (≈ 11.3 µM) |
| Cc1cccc(C)c1NC(=O)NC1(C(=O)N2CCCCC2)CCCCC1 | 45.6 µg/mL (≈ 128 µM) |
| Cn1cccc1C(=O)NCC1CCCCC1 | 28 µg/mL (≈ 127 µM) |
| O=C(COc1ccccc1[N+](=O)[O-])Nc1ccc2oc(=O)ccc2c1 | 0.5 µg/mL (≈ 1.47 µM) |
| O=C1NC(c2ccc(F)cc2)Oc2ccccc21 (stereo unspecified) | 6.4 µg/mL (≈ 26.3 µM) |
| Cc1ccc(C(=O)C(C)OC(=O)c2ccc(Cl)nc2)cc1 (stereo unspecified) | 34.1 µg/mL (≈ 112 µM) |
| CC(NC(=O)c1ccc(S(=O)(=O)C(F)F)cc1)c1ccccc1 (stereo unspecified) | > 50.9 µg/mL |
| OC1(C#CCCN2CCCCC2)c2ccccc2-c2ccccc21 | > 47.6 µg/mL |
| C=CCN1C(=O)/C(=C/c2ccc(Br)s2)C(=O)NC1=S | 15.7 µg/mL (≈ 43.9 µM) |
| O=C(O)COCC(=O)Nc1ccc(-n2cnnn2)cc1 | > 41.6 µg/mL |
| CCOC(=O)CSc1[nH]c2cc(OC)ccc2c1[N+](=O)[O-] | 29.3 µg/mL (≈ 94.4 µM) |
| Cl.NS(=O)(=O)c1ccc(CCNC/C=C/c2ccccc2)cc1 | > 52.9 µg/mL |
| Nc1nc(Cl)cc(Oc2ccccc2F)n1 | 15.6 µg/mL (≈ 65.1 µM) |
| Cl.O=C(O)CN1CCCCC1 | 23.8 µg/mL |
| O=C(NCC(c1ccco1)N1CCOCC1)c1c(F)cccc1F (stereo unspecified) | > 50.5 µg/mL |
| CC1CCN(c2cc(Br)c([N+](=O)[O-])cc2F)CC1 | 3.1 µg/mL (≈ 9.77 µM) |
| Cn1c2ccccc2c2cc([N+](=O)[O-])ccc21 | < 0.2 µg/mL |
| O=C(Nc1ccccc1)c1ccccc1OCc1ccc(F)cc1 | < 0.7 µg/mL |
| COc1cccc2[nH]c3c(=O)[nH]cnc3c12 | > 32.3 µg/mL |
| COc1nc(N)nc(N)c1NS(=O)(=O)c1ccc(C)cc1 | > 46.4 µg/mL |

| SMILES | solubility kinetic |
| --- | --- |
| CCN(CC)c1ccc(C(=O)c2cnc(/N=C/N(C)C)s2)cc1 | 48.6 µg/mL (≈ 147 µM) |
| Cc1ccc(C)c(NC(=O)NCCN2CCCCC2)c1 | 35.6 µg/mL (≈ 129 µM) |
| Cl.c1ccc2c3c([nH]c2c1)CCNC3 | > 31.3 µg/mL |
| C/C(=N/OC(=O)c1ccc(C(F)(F)F)cc1)c1oc(C)nc1C | 8.1 µg/mL (≈ 24.8 µM) |
| O=C(Nc1cccc(S(=O)(=O)Nc2ccc(SC(F)F)cc2)c1)C1CCC1 | 34.8 µg/mL (≈ 84.4 µM) |
| Nn1c(SCC(=O)Nc2ccc3c(c2)OCO3)nncc1=O | > 48.2 µg/mL |
| COc1ccc2oc(=O)c(C(=O)NCc3ccco3)cc2c1 | 4.8 µg/mL (≈ 16 µM) |
| Cc1ccc(CN(Cc2ccccc2)C(=S)Nc2ccccc2C)o1 | 1.5 µg/mL (≈ 4.28 µM) |
| COc1ccc(Cl)cc1C(=O)Nc1cccc2ncccc12 | 2.2 µg/mL (≈ 7.03 µM) |
| O=C(COC(=O)c1ccc(F)c(S(=O)(=O)N2CCOCC2)c1)c1ccccc1 | 6.3 µg/mL (≈ 15.5 µM) |
| CCOc1ccc(CNC(=O)CCc2cn(C)c3ccccc23)cc1 | 2.1 µg/mL (≈ 6.24 µM) |
| CC1CN(S(=O)(=O)c2cccc(C(=O)NCCc3ccc(S(N)(=O)=O)cc3)c2)CC(C)O1 (stereo unspecified) | > 72.2 µg/mL |
| O=C1/C(=C/c2ccncc2)N=C2CCCCCN12 | 33.9 µg/mL (≈ 140 µM) |
| CC(=O)c1sc(NC(C)c2ccccc2)nc1C (stereo unspecified) | 30.4 µg/mL (≈ 117 µM) |
| CSc1cccc(-n2ccc(=O)c(C)c2C)c1 | > 36.8 µg/mL |
| CCN1CCCC1Cn1cnc2c([nH]c3ccc(OC)cc32)c1=O (stereo unspecified) | > 49 µg/mL |
| O=C(COC(=O)c1cc2ccccc2cc1O)NC1CCCCC1 | 5.9 µg/mL (≈ 18 µM) |
| COc1cccc(C(=O)NCC2(c3ccccc3)CCCC2)c1OC | 15.3 µg/mL (≈ 45.1 µM) |
| COc1ccc(Oc2ccc(C(F)(F)F)cc2N)cc1 | 5.3 µg/mL (≈ 18.7 µM) |
| COc1ccccc1NC(=O)COC(=O)Cn1cnc2c1c(=O)n(C)c(=O)n2C | > 60.2 µg/mL |
| Cl.N#C/C(=C\c1ccccc1)C(=O)NCCN1CCOCC1 | > 48.3 µg/mL |
| COc1ccc(NC(=O)C(Br)C(C)C)cc1 (stereo unspecified) | 40.7 µg/mL (≈ 142 µM) |
| CC(=O)N(Cc1cc(=O)[nH]c2ccccc12)c1ccc(C)cc1C | > 48.1 µg/mL |
| Cc1[nH]c2ccccc2c1C(=O)C(C)OC(=O)c1ccc(Cl)nc1 (stereo unspecified) | 26.6 µg/mL (≈ 77.6 µM) |
| N#Cc1cccc(C#N)c1Oc1ccc(N)cc1 | > 35.3 µg/mL |

| SMILES | solubility kinetic |
| --- | --- |
| O=C1/C(=C/c2ccsc2)N2CCC1CC2 | 25.9 µg/mL (≈ 118 µM) |
| N#CC1CN(Cc2ccccc2)CN(Cc2ccccc2)C1 | 32.9 µg/mL (≈ 113 µM) |
| FC(F)(F)c1ccc(-n2cn[nH]c2=S)cc1 | > 36.8 µg/mL |
| CCc1ccc(NC(=O)NCCN2CCCCC2)cc1 | > 41.3 µg/mL |
| Cc1ccc(S(=O)(=O)c2nc(-c3ccccc3Cl)oc2N2CCN(C)CC2)cc1 | 25.2 µg/mL (≈ 58.3 µM) |
| CCN1C(=O)CSC1=Nc1ccc(OC)cc1 | 33.4 µg/mL (≈ 133 µM) |
| O=C1CC(c2cccs2)c2ccc3ccccc3c2N1 (stereo unspecified) | < 0.6 µg/mL |
| O=[N+]([O-])c1ccc(CNc2cccc(Cl)c2)s1 | 6.3 µg/mL (≈ 23.4 µM) |
| CC1CN=C(NCCc2ccccc2)S1 (stereo unspecified) | > 33 µg/mL |
| CCc1ccc(/C([O-])=C(/C(=S)NCCN2CCOCC2)[n+]2ccccc2)cc1 | 55.4 µg/mL (≈ 139 µM) |
| O=C(NCc1ccc2c(c1)OCO2)NC12CC3CC(CC(C3)C1)C2 | 1.3 µg/mL (≈ 3.96 µM) |
| CCNC(=S)Nn1cnc2ccccc21 | > 33 µg/mL |
| CC1=NOC(=O)/C1=C\c1ccccc1 | 24.4 µg/mL (≈ 130 µM) |
| Cc1ccc2c(c1)C(c1ccccc1)N(C(=O)CC(C)C)CC(=O)N2 (stereo unspecified) | > 50.5 µg/mL |
| O=c1oc2ccccc2c(NCc2ccc(Cl)cc2)c1[N+](=O)[O-] | 1.4 µg/mL (≈ 4.23 µM) |
| COc1ccc(OC)c(Cc2nnc(CCC(=O)N3CCCCCC3)o2)c1 | > 56 µg/mL |
| CC1(C)CNc2cc(N)ccc2S1 | 26.3 µg/mL (≈ 135 µM) |
| CCC(=O)Nc1ccc(S(=O)(=O)N2CCc3ccccc32)cc1 | 41.2 µg/mL (≈ 125 µM) |
| CN1CCCN(S(=O)(=O)c2cccc(C#N)c2)CC1.Cl | > 47.4 µg/mL |
| CCN1C(=O)c2cccc3c(Cl)ccc1c23 | 7 µg/mL (≈ 30.2 µM) |
| O=c1[nH]c2ccsc2c(=O)n1CCO | > 31.8 µg/mL |
